Measurements reported in the NIST ThermoML archive (doi:10.1021/je060271a).

Conditions: 303.15 K, Liquid, Vibrating tube method

CCCCCCC(=O)OCC(COC(=O)CCCCCC)(COC(=O)CCCCCC)COC(=O)CCCCCC [pentaerythritol tetraheptanoate]
Conditions | mass density [kg/m3]
14618 kPa | 979.8
14643 kPa | 979.6
14669 kPa | 979.7
14835 kPa | 979.7
14866 kPa | 979.8
14893 kPa | 979.8
14920 kPa | 979.9
14947 kPa | 979.9
14979 kPa | 979.9
15006 kPa | 979.9
15179 kPa | 980
15268 kPa | 980.1
15330 kPa | 980.1
15358 kPa | 980.1
15511 kPa | 980.2
15757 kPa | 980.3
15823 kPa | 980.4
15852 kPa | 980.4
15911 kPa | 980.5
15969 kPa | 980.5
15996 kPa | 980.5
16084 kPa | 980.4
16171 kPa | 980.5
16226 kPa | 980.7
16314 kPa | 980.7
16348 kPa | 980.7
16441 kPa | 980.7
16499 kPa | 980.7
16527 kPa | 980.8
16556 kPa | 980.8
16591 kPa | 980.8
16620 kPa | 980.9
16684 kPa | 980.8
16714 kPa | 981
16809 kPa | 980.9
16906 kPa | 981
16937 kPa | 981.1
16967 kPa | 981.1
17004 kPa | 981
17035 kPa | 981
17066 kPa | 981.1
17103 kPa | 981.1
17134 kPa | 981.1
17305 kPa | 981.2
17337 kPa | 981.2
17369 kPa | 981.4
17407 kPa | 981.3
17756 kPa | 981.5
17796 kPa | 981.5
17831 kPa | 981.5
17865 kPa | 981.5
17899 kPa | 981.6
17940 kPa | 981.7
17975 kPa | 981.7
18052 kPa | 981.6
18128 kPa | 981.7
18164 kPa | 981.8
18201 kPa | 981.7
18237 kPa | 981.8
18282 kPa | 981.7
18319 kPa | 981.9
18356 kPa | 981.8
18394 kPa | 981.8
18458 kPa | 981.9
18488 kPa | 981.8
18517 kPa | 981.8
18612 kPa | 982
18935 kPa | 982.2
18973 kPa | 982.2
19005 kPa | 982.2
19038 kPa | 982.3
19070 kPa | 982.2
19102 kPa | 982.2
19342 kPa | 982.4
19381 kPa | 982.5
19414 kPa | 982.5
19448 kPa | 982.5
19484 kPa | 982.6
19774 kPa | 982.5
19918 kPa | 982.7
19954 kPa | 982.7
19989 kPa | 982.8
20030 kPa | 982.7
20066 kPa | 982.9
20143 kPa | 982.9
20336 kPa | 982.9
20372 kPa | 982.9
20409 kPa | 983
20454 kPa | 983
20490 kPa | 983.1
20527 kPa | 983.1
20572 kPa | 983.1
20609 kPa | 983.2
20647 kPa | 983.1
20691 kPa | 983.2
20729 kPa | 983.3
20767 kPa | 983.1
20812 kPa | 983.2
20936 kPa | 983.2
20976 kPa | 983.4
21014 kPa | 983.4
21054 kPa | 983.3
21101 kPa | 983.4
21140 kPa | 983.4
21179 kPa | 983.5
21227 kPa | 983.4
21267 kPa | 983.4
21314 kPa | 983.5
21354 kPa | 983.4
21444 kPa | 983.6
21526 kPa | 983.6
21576 kPa | 983.5
